The test system of test [1] is cytokines and chemokines. In words: MILLIPLEX Mouse Cytokine/Chemokine Magnetic Bead Panel. It counts as in vivo, transgenic APP mice. Conditions: 2.5 mg/kg or 1.25 mg/kg. Here is the method: (§1) Transgenic mice harboring the Swedish, Dutch, and Iowa mutation for human amyloid beta-precursor protein were treated with intraperitoneal (IP) injections of 10 mg/kg, 5 mg/kg, 2.5 mg/kg, 1.25 mg/kg of LCB 03-0110 or 30 μL of dimethylsulfoxide (DMSO) every day for 1 week. LCB 03-0110 is a potent inhibitor of discoidin domain receptor 2 (DDR2) family tyrosine kinases. All animal experiments were conducted in full compliance with the recommendations of Georgetown University Animal Care and Use Committee (GUAUC). Fifteen mice were used for brain and blood extractions, and fifteen mice were used for drug treatments. Four transgenic APP mice were treated with DMSO, four transgenic APP mice were treated with 10 mg/kg of LCB 03-0110, four transgenic APP mice were treated with 5 mg/kg of LCB 03-0110, four transgenic APP mice were treated with 2.5 mg/kg of LCB 03-0110, and three transgenic APP mice were treated with 1.25 mg/kg of LCB 03-0110. Seven transgenic APP mice were treated with DMSO, and 7 transgenic APP mice were treated with 2.5 mg/kg of LCB.
MILLIPLEX®: Cytokines and chemokines were measured in serum and brain with the Mouse Cytokine/Chemokine Magnetic Bead Panel (Cat MCYTOMAG-70K, EMD Millipore). Human amyloid beta and total tau was measured in brain using the Human Amyloid Beta and Tau Panel (Cat HNABTMAG-68K, EMD Millipore). AKT/mTOR signaling cascade phosphoproteins were measured using the Akt/mTOR Phosphoprotein Magnetic Bread 11-Plex Kit (Cat 48-611MAG, EMD Millipore). Assays were performed according to the manufacturer's protocols.

Test [2] concerns APP mice. In words: Morris water maze. The class given is in vivo. Conditions: 2.5 mg/kg for three weeks; by day three of training; average of three trials. Here is the method:
APP mice treated with either DMSO or 2.5 mg/kg LCB-03-0110 for 3 weeks were trained three times a day to find a submerged platform using visuospatial cues inside the apparatus. […] The mouse was allowed up to 60 seconds to find the platform, after which it would be removed from the apparatus after 5 seconds on the platform. If the animal was unable to find the platform, it was placed on the platform for 20 seconds. […] Data are shown as an average of three trials.

In test [3] the test system is human amyloid beta. In words: MILLIPLEX Human Amyloid Beta and Tau Panel, soluble and insoluble brain fractions. The class given is in vivo, transgenic APP mice. Conditions: 2.5 mg/kg daily for 3 weeks. The method, then:
as §1, with “Transgenic mice harboring the Swedish, Dutch, and Iowa mutation for human amyloid beta-precursor protein were treated with intraperitoneal (IP) injections of 10 mg/kg, 5 mg/kg, 2.5 mg/kg, 1.25 mg/kg of LCB 03-0110 or 30 μL of dimethylsulfoxide (DMSO) every day for 1 week.” left out
(§2) Animals were deeply anesthetized with a mixture of Xylazine and Ketamine (1:8). Whole blood (500 μl) was collected via cardiac puncture and centrifuged at 2000×g to precipitate blood cells. The serum was collected for mass spectrometric analysis. To wash out the remaining blood from vessels and reduce contamination, animals were perfused with 25 ml of 1X phosphate buffered saline (PBS) for 5 min and the brains were collected. A hemisphere was frozen and stored at −80° C. for mass spectrometry studies and the other hemisphere was immediately homogenized in 2.0 ml lysis buffer (containing protease and phosphatase inhibitors) and labeled as a soluble protein fraction.
After removing the soluble supernatant, the tissue pellet was washed with 1×STEN buffer. […]
(§3) MILLIPLEX®: Cytokines and chemokines were measured in serum and brain with the Mouse Cytokine/Chemokine Magnetic Bead Panel (Cat MCYTOMAG-70K, EMD Millipore). Human amyloid beta and total tau was measured in brain using the Human Amyloid Beta and Tau Panel (Cat HNABTMAG-68K, EMD Millipore). AKT/mTOR signaling cascade phosphoproteins were measured using the Akt/mTOR Phosphoprotein Magnetic Bread 11-Plex Kit (Cat 48-611MAG, EMD Millipore). […]

The test system of test [4] is beta-amyloid, synuclein and Tau. Nature of the test: LCB-03-0110 tested in cell culture: levels of misfolded proteins. Conditions: low doses (0.1-3 nM). The class given is cell-based. Here is the method: shRNAs were designed to specifically knock down DDR1 and DDR2 receptors, and study their effects on clearance of misfolded protein accumulation in neurodegeneration. […] These shRNAs were then injected into animal models in vivo. […] A known DDR inhibitor, LCB-03-0110, was tested in cell culture. Low doses (0.1-3 nM) of LCB-03-0110 reduced the levels of beta-amyloid, synuclein and Tau in cell culture.

The test system of test [5] is Tau [pS396]. In words: Human Tau [pS396] solid phase sandwich ELISA on brain tissue homogenates from treated transgenic APP mice. The class given is in vivo. The method, then: as §1, §2
Human Tau [pS396] solid phase sandwich ELISA was performed on brain tissue homogenates from transgenic APP mice treated with LCB 03-0110 at 10 mg/kg, 5 mg/kg, 2.5 mg/kg, and 1.25 mg/kg. A monoclonal Tau capture antibody was coated onto micro-wells. 50 μl of soluble lysate was added to each well, allowing the Tau [pS396] antigen to bind to the immobilized capture antibody, and incubated for two hours at room temperature. After the two hour incubation, samples were washed and incubated with 100 μl of rabbit monoclonal tau [pS396] detection antibody and incubated for one hour at room temperature. Following extensive washing, a 100 μl of horseradish peroxidase labeled anti-rabbit IgG was added to each well and incubated for thirty minutes at room temperature. Samples were washed to remove all unbound enzyme. […] The magnitude of the absorbance for this developed color was proportional to the quantity of Tau […] proteins in the brain tissue homogenates. […] All statistics were performed using ANOVA with Tukey multiple comparison post-test and data were expressed as Mean±SD.
(In general: In an ELISA, binding on a coated surface is turned into a signal by an enzyme label.)

In test [6] the test system is phosphorylated mTOR. In words: MILLIPLEX Akt/mTOR phosphoprotein analysis. Conditions: mean fluorescent intensity; 1.25 or 2.5 mg/kg. The class given is in vivo, transgenic APP mice. Here is the method: as §1, with “Seven transgenic APP mice were treated with DMSO, and 7 transgenic APP mice were treated with 2.5 mg/kg of LCB.” left out
as §3

With `Oc1cccc(Nc2ccnc3cc(-c4cccc(CN5CCOCC5)c4)sc23)c1` [LCB 03-0110, 3-(2-(3-(morpholinomethyl)phenyl)thieno[3,2-b]pyridine-7-ylamino)phenol], in test [1], the RANTES levels entry was “does not alter”, the VEGF-A levels result is “reduces VEGF-A to control levels”, the brain inflammation result is recorded as “reduced” and the “granulocyte colony-stimulating factor (G-CSF)” value is reported as “reductions”. In addition, in test [1], the “granulocyte-macrophage colony-stimulating factor (GM-CSF)” value was “reductions”, the “macrophage colony-stimulating factor (M-CSF)” value is “reductions”, the “macrophage inflammatory factor 1 alpha (MIP-1α)” value is “reductions” and the “macrophage inflammatory factor 1 beta (MIP-1β)” value is recorded as “reductions”. In test [1], the “macrophage inflammatory protein 1 (MIP-1)” value is “reductions” and the “macrophage inflammatory protein 2 (MIP-2)” value is on record as “reductions”. Moreover, the “reduction in the average time to find a submerged platform” value in test [2] is on record as 30%. Besides, in test [3] (brain), the “soluble human Aβ40 levels” value was “significantly reduced” and the “soluble human Aβ42 levels” value is given as “significantly reduced”. In test [3] (brains of APP mice), the “insoluble human Aβ42 levels” value is “significantly reduced”. For the same compound, in test [4], the “levels of Tau” value is given as “reduced”, the levels of beta-amyloid entry was “reduced” and the levels of synuclein result is reported as “reduced”. For the same compound, the “total Tau levels” value in test [5] (10 mg/kg or less, 12-15 month old APP mice, after one week) is “does not alter”. Further, in test [5] (brain homogenate, 10 mg/kg or less (10, 5, 2.5, 1.25 mg/kg) IP daily for 1 week, vs DMSO), the “level of phosphorylated Tau (pS396)” value is on record as “reduces”. Further, in test [5] (brain homogenate, 10 mg/kg or less IP daily for 1 week, vs DMSO), the “ratio of Tau (phosphorylated Tau (pS396)/total Tau)” value was “reduces”. Besides, the “reducing the ratio of Tau: lower dosages compared with higher dosages” value in test [5] (less than 2.5 mg/kg versus greater than 5.0 mg/kg) was “more effective”. The “phosphorylated mTOR levels” value in test [6] is given as “without altering”.

For the origin of these results see US20190262323A1, “COMPOSITIONS AND METHODS FOR TREATING NEURODEGENERATIVE DISORDERS” (GEORGETOWN UNIVERSITY, priority 2016, published 2019).
